From PubChem BioAssay (NCI)
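Briefly, cells in 96-well plates were exposed to five compound concentrations for 48 h, and endpoints were estimated by linear interpolation. GI50 marks 50% less growth. Definition used: TGI = concentration required for complete inhibition of growth.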

Tests used:
Assay in all cases: NCI tumour cell line growth inhibition, 48 h
786-0 renal = test system: 786-0 renal
A498 renal = test system: A498 renal
A549 NSCLC = test system: A549 NSCLC
ACHN renal = test system: ACHN renal
BT-549 breast = test system: BT-549 breast
CAKI-1 renal = test system: CAKI-1 renal
CCRF-CEM leukemia = test system: CCRF-CEM leukemia
COLO 205 colon = test system: COLO 205 colon
DU-145 prostate = test system: DU-145 prostate
EKVX NSCLC = test system: EKVX NSCLC
HCC-2998 colon = test system: HCC-2998 colon
HCT-116 colon = test system: HCT-116 colon
HCT-15 colon = test system: HCT-15 colon
HL-60(TB) leukemia = test system: HL-60(TB) leukemia
HOP-62 NSCLC = test system: HOP-62 NSCLC
HOP-92 NSCLC = test system: HOP-92 NSCLC
HS 578T breast = test system: HS 578T breast
HT29 colon = test system: HT29 colon
IGROV1 ovarian = test system: IGROV1 ovarian
K-562 leukemia = test system: K-562 leukemia
KM12 colon = test system: KM12 colon
LOX IMVI melanoma = test system: LOX IMVI melanoma
M14 melanoma = test system: M14 melanoma
MALME-3M melanoma = test system: MALME-3M melanoma
MCF7 breast = test system: MCF7 breast
MDA-MB-231 breast = test system: MDA-MB-231 breast
MDA-MB-435 = test system: MDA-MB-435
MOLT-4 leukemia = test system: MOLT-4 leukemia
NCI-H226 lung = test system: NCI-H226 lung
NCI-H23 lung = test system: NCI-H23 lung
NCI-H460 lung = test system: NCI-H460 lung
NCI-H522 lung = test system: NCI-H522 lung
NCI/ADR-RES ovarian = test system: NCI/ADR-RES ovarian
OVCAR-3 ovarian = test system: OVCAR-3 ovarian
OVCAR-4 ovarian = test system: OVCAR-4 ovarian
OVCAR-5 ovarian = test system: OVCAR-5 ovarian
OVCAR-8 ovarian = test system: OVCAR-8 ovarian
PC-3 prostate = test system: PC-3 prostate
RPMI-8226 leukemia = test system: RPMI-8226 leukemia
RXF 393 renal = test system: RXF 393 renal
SF-268 CNS = test system: SF-268 CNS
SF-295 CNS = test system: SF-295 CNS
SF-539 CNS = test system: SF-539 CNS
SK-MEL-2 melanoma = test system: SK-MEL-2 melanoma
SK-MEL-28 melanoma = test system: SK-MEL-28 melanoma
SK-MEL-5 melanoma = test system: SK-MEL-5 melanoma
SK-OV-3 ovarian = test system: SK-OV-3 ovarian
SN12C renal = test system: SN12C renal
SNB-19 CNS = test system: SNB-19 CNS
SNB-75 CNS = test system: SNB-75 CNS
SR leukemia = test system: SR leukemia
SW-620 colon = test system: SW-620 colon
T-47D breast = test system: T-47D breast
TK-10 renal = test system: TK-10 renal
U251 CNS = test system: U251 CNS
UACC-257 melanoma = test system: UACC-257 melanoma
UACC-62 melanoma = test system: UACC-62 melanoma
UO-31 renal = test system: UO-31 renal

Structure (SMILES): CCN(CC)c1ccc(/C=N/NC(=O)c2ccc(Nc3ccnc(C(F)(F)F)c3)cc2)c(O)c1
- GI50 (786-0 renal): 188 nM
- TGI (786-0 renal): 447 nM
- GI50 (A498 renal): 479 nM
- TGI (A498 renal): 10600 nM
- GI50 (A549 NSCLC): 439 nM
- TGI (A549 NSCLC): > 100000 nM
- GI50 (ACHN renal): 142 nM
- TGI (ACHN renal): 2560 nM
- GI50 (BT-549 breast): 380 nM
- TGI (BT-549 breast): > 34900 nM
- GI50 (CAKI-1 renal): 268 nM
- TGI (CAKI-1 renal): 2070 nM
- GI50 (CCRF-CEM leukemia): 53.2 nM
- TGI (CCRF-CEM leukemia): 771 nM
- GI50 (COLO 205 colon): 281 nM
- TGI (COLO 205 colon): 1090 nM
- GI50 (DU-145 prostate): 362 nM
- TGI (DU-145 prostate): > 46900 nM
- GI50 (EKVX NSCLC): 167 nM
- TGI (EKVX NSCLC): 1760 nM
- GI50 (HCC-2998 colon): 250 nM
- TGI (HCC-2998 colon): 1400 nM
- GI50 (HCT-116 colon): 141 nM
- TGI (HCT-116 colon): 1340 nM
- GI50 (HCT-15 colon): 66.6 nM
- TGI (HCT-15 colon): 2550 nM
- GI50 (HL-60(TB) leukemia): 258 nM
- TGI (HL-60(TB) leukemia): 791 nM
- GI50 (HOP-62 NSCLC): 187 nM
- TGI (HOP-62 NSCLC): 1070 nM
- GI50 (HOP-92 NSCLC): 1050 nM
- TGI (HOP-92 NSCLC): > 100000 nM
- GI50 (HS 578T breast): 321 nM
- TGI (HS 578T breast): 3600 nM
- GI50 (HT29 colon): 339 nM
- TGI (HT29 colon): 1680 nM
- GI50 (IGROV1 ovarian): 158 nM
- GI50 (K-562 leukemia): 147 nM
- TGI (K-562 leukemia): 3470 nM
- GI50 (KM12 colon): 316 nM
- TGI (KM12 colon): 4100 nM
- GI50 (LOX IMVI melanoma): 140 nM
- TGI (LOX IMVI melanoma): 922 nM
- GI50 (M14 melanoma): 250 nM
- TGI (M14 melanoma): 1420 nM
- GI50 (MALME-3M melanoma): 482 nM
- TGI (MALME-3M melanoma): 5700 nM
- GI50 (MCF7 breast): 326 nM
- TGI (MCF7 breast): > 100000 nM
- GI50 (MDA-MB-231 breast): 396 nM
- TGI (MDA-MB-231 breast): 3970 nM
- GI50 (MDA-MB-435): 454 nM
- TGI (MDA-MB-435): 7790 nM
- GI50 (MOLT-4 leukemia): 117 nM
- TGI (MOLT-4 leukemia): 1380 nM
- GI50 (NCI-H226 lung): 288 nM
- TGI (NCI-H226 lung): 2340 nM
- GI50 (NCI-H23 lung): 428 nM
- TGI (NCI-H23 lung): 9800 nM
- GI50 (NCI-H460 lung): 212 nM
- TGI (NCI-H460 lung): 1480 nM
- GI50 (NCI-H522 lung): 293 nM
- TGI (NCI-H522 lung): 2070 nM
- GI50 (NCI/ADR-RES ovarian): 598 nM
- TGI (NCI/ADR-RES ovarian): 17600 nM
- GI50 (OVCAR-3 ovarian): 109 nM
- TGI (OVCAR-3 ovarian): > 70100 nM
- GI50 (OVCAR-4 ovarian): 152 nM
- TGI (OVCAR-4 ovarian): > 100000 nM
- GI50 (OVCAR-5 ovarian): 380 nM
- TGI (OVCAR-5 ovarian): 4750 nM
- GI50 (OVCAR-8 ovarian): 322 nM
- TGI (OVCAR-8 ovarian): > 33000 nM
- GI50 (PC-3 prostate): 434 nM
- TGI (PC-3 prostate): > 100000 nM
- GI50 (RPMI-8226 leukemia): 120 nM
- TGI (RPMI-8226 leukemia): 555 nM
- GI50 (RXF 393 renal): 156 nM
- TGI (RXF 393 renal): 440 nM
- GI50 (SF-268 CNS): 155 nM
- TGI (SF-268 CNS): > 20700 nM
- GI50 (SF-295 CNS): 122 nM
- TGI (SF-295 CNS): 927 nM
- GI50 (SF-539 CNS): 234 nM
- TGI (SF-539 CNS): 870 nM
- GI50 (SK-MEL-2 melanoma): 718 nM
- GI50 (SK-MEL-28 melanoma): 320 nM
- TGI (SK-MEL-28 melanoma): > 27300 nM
- GI50 (SK-MEL-5 melanoma): 412 nM
- TGI (SK-MEL-5 melanoma): 1710 nM
- GI50 (SK-OV-3 ovarian): 324 nM
- TGI (SK-OV-3 ovarian): 8360 nM
- GI50 (SN12C renal): 395 nM
- TGI (SN12C renal): > 100000 nM
- GI50 (SNB-19 CNS): 390 nM
- TGI (SNB-19 CNS): > 73600 nM
- GI50 (SNB-75 CNS): 152 nM
- TGI (SNB-75 CNS): 3410 nM
- GI50 (SR leukemia): 86.2 nM
- TGI (SR leukemia): 672 nM
- GI50 (SW-620 colon): 404 nM
- TGI (SW-620 colon): > 64700 nM
- GI50 (T-47D breast): 332 nM
- TGI (T-47D breast): 3700 nM
- GI50 (TK-10 renal): 420 nM
- TGI (TK-10 renal): > 100000 nM
- GI50 (U251 CNS): 145 nM
- TGI (U251 CNS): > 37600 nM
- GI50 (UACC-257 melanoma): 412 nM
- TGI (UACC-257 melanoma): > 31000 nM
- GI50 (UACC-62 melanoma): 229 nM
- TGI (UACC-62 melanoma): 898 nM
- GI50 (UO-31 renal): 117 nM
- TGI (UO-31 renal): 1910 nM
